1 cell line from the supplement of paper PMC10307832 can be followed below.

What all share (assay): relative viability (nuclei count vs DMSO), 5 days (fraction); higher = more cells survive
Compound in one test: C[C@@H](C(=O)N[C@@H](C1CCCCC1)C(=O)N2CCC[C@H]2C(=O)N[C@@H]3[C@@H](CC4=CC=CC=C34)OCC#CC#CCO[C@@H]5CC6=CC=CC=C6[C@@H]5NC(=O)[C@@H]7CCCN7C(=O)[C@H](C8CCCCC8)NC(=O)[C@H](C)NC)NC [AZD5582]
In short, it runs like this: (§1)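 Following overnight incubation at 37 °C, lung cancer cell lines in 1536-well plates were pinned with five library-drug doses (not always all listed) in √10 steps on vehicle-anchored plates. The cells then spent 5 days without medium change before a combined fix, permeabilisation and Hoechst stain, 4× imaging and MetaXpress nuclear counts. Viability is the treated-to-vehicle ratio of nuclei, taken as the median across plates. Only plates with control CV below 25% and at least one doubling passed.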

Compound in a further test: Cn1nnc2c(C(N)=O)ncn2c1=O [Temozolomide]
In short, it runs like this: as §1

Compound in the test “AZD5582 + Crizotinib”: C[C@@H](C(=O)N[C@@H](C1CCCCC1)C(=O)N2CCC[C@H]2C(=O)N[C@@H]3[C@@H](CC4=CC=CC=C34)OCC#CC#CCO[C@@H]5CC6=CC=CC=C6[C@@H]5NC(=O)[C@@H]7CCCN7C(=O)[C@H](C8CCCCC8)NC(=O)[C@H](C)NC)NC [AZD5582] + C[C@@H](Oc1cc(-c2cnn(C3CCNCC3)c2)cnc1N)c1c(Cl)ccc(F)c1Cl [Crizotinib] (partner 1 µM)
The method in brief: (§2)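 For relative viability, nuclei counts in treated wells were divided by those in vehicle wells. Lung cancer cell lines had been pin-tool dosed in 1536-well plates the day after seeding and cultured for 5 days, then fixed and stained in one step (final 0.05% Triton X-100, 1% formaldehyde, 1 ug/ml Hoechst) and imaged at 4×. Doses were one drug alone or a fixed anchor-drug dose plus five library-drug doses (not always all listed) in √10 steps, and values are duplicate-plate medians.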

Compound in test [1]: Cn1nnc2c(C(N)=O)ncn2c1=O [Temozolomide] + CC1(C)CCC(c2ccc(Cl)cc2)=C(CN2CCN(c3ccc(C(=O)NS(=O)(=O)c4ccc(N[C@H](CCN5CCOCC5)CSc5ccccc5)c(S(=O)(=O)C(F)(F)F)c4)cc3)CC2)C1 [Navitoclax] (partner 0.5 µM)
The method in brief: as §2

Consider NCI-H1703, for which the relative viability with AZD5582 (0.005 µM) came to 0.853; with AZD5582 (0.01581 µM) it was 0.952; in the test with AZD5582 (0.05 µM), 0.925; with Temozolomide (0.2 µM) it was 0.986; with Temozolomide (0.6325 µM) it was 0.947; in the test with Temozolomide (2 µM), 1.29. In addition, the relative viability amounted to 0.825 with Temozolomide (6.325 µM); 0.965 in the test with Temozolomide (20 µM); 0.463 with AZD5582 + Crizotinib (first compound 0.001581 µM); 0.428 in the test with AZD5582 + Crizotinib (first compound 0.005 µM); 0.59 with AZD5582 + Crizotinib (first compound 0.01581 µM); 0.459 with AZD5582 + Crizotinib (first compound 0.05 µM). Moreover, the relative viability in test [1] (first compound 0.2 µM) came to 1.21; in test [1] (first compound 0.6325 µM), 1.2; in test [1] (first compound 2 µM) it was 1.28; in test [1] (first compound 6.325 µM), 0.947; in test [1] (first compound 20 µM), 1.37.
